Test results from patent US20230365488A1, “TRUXILLIC ACID MONOESTER-DERIVATIVES AS SELECTIVE FABP5 INHIBITORS AND PHARMACEUTICAL COMPOSITIONS AND USES THEREOF” (The Research Foundation for The State University of New York, priority 2020, published 2023).

How the values were obtained:
FABP3 = FABP3 (Homo sapiens (Human), UniProt P05413); assay: FABP3 fluorescent probe displacement binding assay; conditions: average ± S.E. of at least three independent experiments
FABP5 = FABP5 (Homo sapiens (Human), UniProt Q01469); assay: FABP5 fluorescent probe displacement binding assay; conditions: for Ki: average ± S.E. of at least three independent experiments; for FABP3 Ki/FABP5 Ki: selectivity ratio FABP3 over FABP5
Chain of FABP5 (Q01469 whole entry): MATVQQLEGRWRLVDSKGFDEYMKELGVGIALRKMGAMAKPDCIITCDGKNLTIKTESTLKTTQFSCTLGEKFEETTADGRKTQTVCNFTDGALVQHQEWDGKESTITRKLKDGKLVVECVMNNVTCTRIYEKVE

FABP7 = FABP7 (Homo sapiens (Human), UniProt O15540); assay: FABP7 fluorescent probe displacement binding assay; conditions: average ± S.E. of at least three independent experiments
Chain of FABP7 (O15540 whole entry): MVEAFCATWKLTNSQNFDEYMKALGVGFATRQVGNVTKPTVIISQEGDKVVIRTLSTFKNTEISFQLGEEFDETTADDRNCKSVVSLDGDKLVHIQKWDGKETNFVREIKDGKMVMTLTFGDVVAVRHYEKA

[1] = tested on: PC-3 (human metastatic prostate cancer) cells; assay: Cytotoxicity (MTT) assay, PC-3 (Example 5); assay type: cell-based; conditions: 72-hour incubation, 1% FBS, read-out: PC3 IC50
[2] = tested on: HepG2 (human liver cancer) cells; assay: Cytotoxicity (MTT) assay, HepG2 (Example 5); assay type: cell-based; conditions: 72-hour incubation, 1% FBS
[3] = tested on: WI-38 (human normal lung fibroblast) cells; assay: Cytotoxicity (MTT) assay, WI-38 (Example 5); assay type: cell-based; conditions: 72-hour incubation, 1% FBS
PC3 cells = assay: MTT cytotoxicity and taxane combination (CI) analysis, PC3 (Example 6); assay type: cell-based, human; conditions: for CI value / Fa value / Relationship: PC3, 1y 7.5 μM or 1w 1.0 μM
22Rv1 cells = assay: MTT cytotoxicity and taxane combination (CI) analysis, 22Rv1 (Example 6); assay type: cell-based, human; conditions: for CI value / Fa value / Relationship: 1y 7.5 μM or 1w 1.0 μM
[4] = MTT cytotoxicity, RWPE-1 (Example 6); assay type: cell-based; conditions: human, RWPE-1 cells (normal prostate cell line), 72-hour incubation
[5] = MTT cytotoxicity, WI-38 (Example 6); assay type: cell-based; conditions: human, WI-38 cells (normal lung cell line), 72-hour incubation
[6] = tested on: PC3 cells implanted subcutaneously; assay: Subcutaneous PC3 tumor growth in nude mice; assay type: in vivo, male BALB/c nude mice; conditions: ip
[7] = combination with cabazitaxel 0.03 nM
[8] = combination with cabazitaxel 0.3 nM
[9] = combination with cabazitaxel 3.0 nM
[10] = combination with docetaxel 0.03 nM
[11] = combination with docetaxel 0.3 nM
[12] = combination with docetaxel 3.0 nM
[13] = 22Rv1, combination with cabazitaxel 0.03 nM
[14] = 22Rv1, combination with cabazitaxel 0.3 nM
[15] = 22Rv1, combination with cabazitaxel 3.0 nM
[16] = 22Rv1, combination with docetaxel 0.03 nM
[17] = 22Rv1, combination with docetaxel 0.3 nM
[18] = 22Rv1, combination with docetaxel 3.0 nM

Chain of FABP3 (P05413 whole entry): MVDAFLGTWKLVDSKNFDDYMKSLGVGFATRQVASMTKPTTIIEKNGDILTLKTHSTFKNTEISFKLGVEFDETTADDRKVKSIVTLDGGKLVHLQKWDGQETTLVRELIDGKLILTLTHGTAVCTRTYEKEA

With O=C1CCc2cc(-c3cccc(OC(=O)[C@@H]4C(c5ccccc5)[C@@H](C(=O)O)[C@H]4c4ccccc4)c3)ccc2N1 (mixture of isomers) [Compound 1h, (±)-α-2,4-diphenyl-3-[3-(2-oxo-1,2,3,4-tetrahydroquinolin-6-yl)phenoxycarbonyl]cyclobutane-1-carboxylic acid] the Ki (FABP3) was 8.11 ± 1.67 µM, the Ki (FABP5) was 0.74 ± 0.06 µM and the “FABP3 Ki/FABP5 Ki” value (FABP5) was 10.9. For the same compound, the Ki (FABP7) was 0.7 ± 0.03 µM, the IC50 [1] was 4.93 µM and the IC50 [2] was 7.89 µM. It also gave an IC50 [3] of 24 µM.

In the case of COc1ccccc1C1[C@@H](C(=O)O)[C@@H](c2ccccc2OC)[C@@H]1C(=O)Oc1cccc(-c2ccc3c(c2)OCCO3)c1 (mixture of isomers) [Compound 1m], the Ki (FABP3) is reported as 2.79 ± 0.85 µM, the Ki (FABP5) is reported as 1.56 ± 0.19 µM and the “FABP3 Ki/FABP5 Ki” value (FABP5) is reported as 1.8. It also gave a Ki (FABP7) of 2.25 ± 0.13 µM, an IC50 [1] of 7.25 µM and an IC50 [2] of 11.2 µM. For the same compound, the IC50 [3] was 49.5 µM.

For COc1ccccc1[C@@H]1C(C(=O)O)[C@@H](c2ccccc2OC)C1C(=O)Oc1ccccc1-c1ccc2c(c1)OCO2 (mixture of isomers) [Compound 1n, (±)-α-3-[2-(bnzo[d][1,3]dioxol-5-yl)phenoxycarbonyl]-2,4-di (2-methoxyphenyl)cyclobutane-1-carboxylic acid], the Ki (FABP3) was 1.28 ± 0.28 µM, the Ki (FABP5) was 1.59 ± 0.11 µM and the “FABP3 Ki/FABP5 Ki” value (FABP5) was 0.8. For the same compound, the Ki (FABP7) was 0.26 ± 0.09 µM, the IC50 [1] was 20.7 µM and the IC50 [2] was 23.5 µM. For the same compound, the IC50 [3] was 59.4 µM.

With COc1ccccc1[C@H]1[C@H](C(=O)O)[C@H](c2ccccc2OC)[C@H]1C(=O)Oc1ccccc1-c1ccccc1 (racemic) [Compound 1o, (±)-α-3-(1,1′-biphenyl-2-yloxycarbonyl)-2,4-di (2-methoxyphenyl)cyclobutane-1-carboxylic acid] the Ki (FABP3) was 0.21 ± 0.09 µM, the Ki (FABP5) was 1.59 ± 0.24 µM and the “FABP3 Ki/FABP5 Ki” value (FABP5) was 0.13. The Ki (FABP7) was 1.36 ± 0.23 µM, the IC50 [1] was 8.69 µM and the IC50 [2] was 9.43 µM. It also gave an IC50 [3] of over 100 µM.

For COc1ccccc1[C@H]1[C@H](C(=O)O)[C@H](c2ccccc2OC)[C@H]1C(=O)OCc1cccc2ccccc12 (racemic) [Compound 1q, (±)-α-2,4-bis(2-methoxyphenyl)-3-(naphthalen-1-ylmethoxycarbonyl)cyclobutane-1-carboxylic acid], the Ki (FABP3) was 52.6 ± 8.62 µM, the Ki (FABP5) was 2.15 ± 0.17 µM and the “FABP3 Ki/FABP5 Ki” value (FABP5) was 24.5. The Ki (FABP7) was 8.04 ± 0.71 µM, the IC50 [1] was 11.3 µM and the IC50 [2] was 12.4 µM. The IC50 [3] was 20.3 µM.

With COc1ccccc1[C@H]1[C@H](C(=O)O)[C@H](c2ccccc2OC)[C@H]1C(=O)Oc1cccc2ccccc12 (racemic) [Compound 1y] the Ki (FABP3) was 0.69 ± 0.17 µM, the Ki (FABP7) was 0.67 ± 0.04 µM and the IC50 (PC3 cells; Homo sapiens, PC-3, MTT, 72-hour incubation, single agent) was 11.4 µM. The CI value (PC3 cells; [7]) was 0.0001, the Fa value (PC3 cells; [7]) was 0.998 and the Relationship (PC3 cells; [7]) was “synergistic”. The CI value (PC3 cells; [8]) was 0.0001, the Fa value (PC3 cells; [8]) was 0.999 and the Relationship (PC3 cells; [8]) was “synergistic”. The CI value (PC3 cells; [9]) was 0.0001, the Fa value (PC3 cells; [9]) was 0.999 and the Relationship (PC3 cells; [9]) was “synergistic”. The CI value (PC3 cells; [10]) was 0.897, the Fa value (PC3 cells; [10]) was 0.786 and the Relationship (PC3 cells; [10]) was “synergistic”. The CI value (PC3 cells; [11]) was 0.009, the Fa value (PC3 cells; [11]) was 0.950 and the Relationship (PC3 cells; [11]) was “synergistic”. The CI value (PC3 cells; [12]) was 0.160, the Fa value (PC3 cells; [12]) was 0.992 and the Relationship (PC3 cells; [12]) was “synergistic”. The “cytotoxicity of combination with docetaxel or cabazitaxel versus each drug administered independently” value (PC3 cells; PC3 cells) was “greater cytotoxicity”, the CI value (22Rv1 cells; [13]) was 0.707 and the Fa value (22Rv1 cells; [13]) was 0.777. For the same compound, the Relationship (22Rv1 cells; [13]) was “synergistic”, the CI value (22Rv1 cells; [14]) was 0.396 and the Fa value (22Rv1 cells; [14]) was 0.899. For the same compound, the Relationship (22Rv1 cells; [14]) was “synergistic”, the CI value (22Rv1 cells; [15]) was 0.003 and the Fa value (22Rv1 cells; [15]) was 0.998. For the same compound, the Relationship (22Rv1 cells; [15]) was “synergistic”, the CI value (22Rv1 cells; [16]) was 3.846 and the Fa value (22Rv1 cells; [16]) was 0.795. The CI value (22Rv1 cells; [17]) was 0.003, the Fa value (22Rv1 cells; [17]) was 0.904 and the Relationship (22Rv1 cells; [17]) was “synergistic”. The CI value (22Rv1 cells; [18]) was 0.005, the Fa value (22Rv1 cells; [18]) was 0.999 and the Relationship (22Rv1 cells; [18]) was “synergistic”. For the same compound, the “cytotoxicity of combination with docetaxel or cabazitaxel versus each drug administered independently” value (22Rv1 cells; 22Rv1 cells) was “greater cytotoxicity”, the IC50 (22Rv1 cells; Homo sapiens, 22Rv1, MTT, 72-hour incubation, single agent) was 10.1 µM and the IC50 at 72 h [4] was 26 µM. For the same compound, the IC50 at 72 h [5] was 29.4 µM and the tumor growth ([6]; 20 mg/kg, once daily, from day 15, versus vehicle) was “significantly reduced tumor growth”.

With COc1ccccc1[C@H]1[C@H](C(=O)O)[C@H](c2ccccc2OC)[C@@H]1C(=O)Oc1cccc(-c2cccc3c2OCCO3)c1 (racemic) [Compound 2c, (±)-γ-3-((3-(2,3-dihydrobenzo[b][1, 4]dioxin-5-yl)phenoxy)carbonyl)-2,4-di(2-methoxyphenyl)cyclobutane-1-carboxylic acid] the Ki (FABP3) was 6.86 ± 0.07 µM, the Ki (FABP5) was 1.26 ± 0.12 µM and the “FABP3 Ki/FABP5 Ki” value (FABP5) was 5.4. The Ki (FABP7) was 1.78 ± 0.45 µM, the IC50 [1] was 10.1 µM and the IC50 [2] was 16.4 µM. It also gave an IC50 [3] of 52.1 µM.

With O=C(O)[C@@H]1C(c2ccccc2)[C@H](C(=O)OCc2ccccc2-c2ccccc2)[C@H]1c1ccccc1 (mixture of isomers) [Compound 3c, (±) -ε-3-(1,1′-biphenyl-2-ylmethoxycarbonyl)-2,4-diphenylcyclobutane-1-carboxylic acid] the Ki (FABP3) was 3.4 ± 0.54 µM, the Ki (FABP5) was 1.65 ± 0.22 µM and the “FABP3 Ki/FABP5 Ki” value (FABP5) was 2.1. For the same compound, the Ki (FABP7) was 0.68 ± 0.16 µM, the IC50 [1] was 15 µM and the IC50 [2] was 13.8 µM. It also gave an IC50 [3] of 22.2 µM.

In the case of O=C(O)[C@@H]1[C@@H](c2ccccc2)[C@H](C(=O)OCc2cccc3ccccc23)[C@H]1c1ccccc1 [Compound 3f, ε-2,4-diphenyl-3-(napthylen1-yl)methoxycarbonylcyclobutane-1-carboxylic acid], the Ki (FABP3) is reported as 7.42 ± 1.38 µM, the Ki (FABP5) is reported as 5.08 ± 0.62 µM and the “FABP3 Ki/FABP5 Ki” value (FABP5) is reported as 1.5. For the same compound, the Ki (FABP7) was 0.86 ± 0.04 µM, the IC50 [1] was 0.95 µM and the IC50 [2] was 1.26 µM. It also gave an IC50 [3] of 1.6 µM.

In the case of CC(=O)O[C@@]12CO[C@@H]1C[C@H](O)[C@@]1(C)C(=O)[C@H](O)C3=C(C)[C@@H](OC(=O)[C@H](O)[C@@H](NC(=O)OC(C)(C)C)c4ccccc4)C[C@@](O)([C@@H](OC(=O)c4ccccc4)[C@H]21)C3(C)C [docetaxel, reference compound], the tumor growth ([6]; 10 mg/kg, once weekly) is reported as “near complete inhibition of growth”.
